Assay results taken from patent US8945540B2, “Compositions for enhancing the antibacterial activity of myeloperoxidase and methods of use thereof” (Exoxemis, Inc., priority 2008, dated 2015).
Read-outs that look alike come from different tables or passages of the source.

How the values were obtained:
Staphylococcus aureus [1] = assay: Control: microbicidal activity of the amino acid or analogue alone (no glucose, MPO, glucose oxidase) in the presence of blood; assay type: cell-based; settings: for log reduction at 5000 µM: Staphylococcus aureus, 1 h, read-out: Log Reduction 60 min
Source text: As a control to determine the microbicidal activity of the amino acids alone, the foregoing procedure was followed without replication, except in the absence of glucose, MPO, and glucose oxidase.

Staphylococcus aureus [2] = assay: Microbicidal activity of the myeloperoxidase system (p-MPO, glucose oxidase, glucose) with amino acids in the presence of blood, CFU plate counts; synergy determination from these CFU; assay type: cell-based; settings: for Average Viability CFU/ml 60 min / Log Reduction 60 min / Log 10 (CFU + 1) Survivors 60 min: MPO 38 U/ml, GO 33.3 U/ml, blood; for Average Viability CFU/ml 50 min / Log Reduction 50 min: MPO 4.7 U/ml, GO 4.2 U/ml
Outline: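 Microbicidal activity of the MPO–glucose oxidase–glucose system against S. aureus with amino acids was assessed in 3% whole blood. Reactions of 1 mL were run at room temperature or 37° C and stopped with catalase. Surviving CFU were counted on trypticase soy agar. For each pair, Actual CFU was divided by Predicted CFU and multiplied by 100. This value was compared with variability-based thresholds to classify synergism, antagonism or additivity.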

[3] = amino acid alone 5 mM, MPO 0, GO 0, no glucose, blood, without replication
[4] = MPO 100 μg/mL, AA 20 mM, 30 min
[5] = MPO 100 μg/mL, AA 20 mM, 60 min
[6] = Table 5, amino acid 5 mM (none: 0 mM)
[7] = Table 11, single amino acid 2.5 mM, in the presence of blood
[8] = amino acid analogue alone 5 mM, MPO 0, GO 0, no glucose, blood
[9] = Table 7, amino acid analogue 5 mM
[10] = Table 2, amino acid 5 mM (none: 0 mM)
[11] = Table 10, single amino acid 2.5 mM, in the presence of blood
[12] = Table 13, single amino acid 2.5 mM, in the presence of blood
[13] = Table 14, single amino acid 2.5 mM, in the presence of blood
[14] = Table 19, amino acid (racemic, L- or D-form) 2.5 mM
[15] = Table 4, amino acid 5 mM (none: 0 mM)

SMILES	log reduction at 5000 µM (Staphylococcus aureus [1]; [3])	Average Viability CFU/ml 60 min (Staphylococcus aureus [1]; [3])	Log 10 (CFU + 1) Survivors (Staphylococcus aureus [2]; MPO 25 μg/mL, AA 5 mM, 30 min)	Log 10 (CFU + 1) Survivors (Staphylococcus aureus [2]; MPO 25 μg/mL, AA 5 mM, 60 min)	Log 10 (CFU + 1) Survivors (Staphylococcus aureus [2]; MPO 25 μg/mL, AA […], 30 min)	Log 10 (CFU + 1) Survivors (Staphylococcus aureus [2]; MPO 25 μg/mL, AA […], 60 min)	Log 10 (CFU + 1) Survivors (Staphylococcus aureus [2]; MPO 100 μg/mL, AA 5 mM, 30 min)	Log 10 (CFU + 1) Survivors (Staphylococcus aureus [2]; MPO 100 μg/mL, AA 5 mM, 60 min)	Log 10 (CFU + 1) Survivors (Staphylococcus aureus [2]; [4])	Log 10 (CFU + 1) Survivors (Staphylococcus aureus [2]; [5])	Average Viability CFU/ml 60 min (Staphylococcus aureus [2]; [10])	Log 10 (CFU + 1) Survivors 60 min (Staphylococcus aureus [2]; [10])	Log Reduction 60 min (Staphylococcus aureus [2]; [10])	Average Viability CFU/ml 50 min (Staphylococcus aureus [2]; [11])	Log Reduction 50 min (Staphylococcus aureus [2]; [11])	Average Viability CFU/ml 50 min (Staphylococcus aureus [2]; [12])	Log Reduction 50 min (Staphylococcus aureus [2]; [12])	further results
N[C@H](Cc1c[nH]cn1)C(=O)O [D-Histidine]	0	22300000 CFU/ml	7.0	6.0	6.9	5.8	5.1	4.1	6.8	3.9								Average Viability CFU/ml 60 min (Staphylococcus aureus [2]; [6]): 10900 CFU/ml; Log Reduction 60 min (Staphylococcus aureus [2]; [6]): 3.4; Average Viability CFU/ml 50 min (Staphylococcus aureus [2]; [7]): 8000000 CFU/ml; Log Reduction 50 min (Staphylococcus aureus [2]; [7]): 0.5
COC(=O)[C@@H]1CCCN1.Cl [L-Proline methyl ester hydrochloride]																		log reduction at 5000 µM (Staphylococcus aureus [1]; [8]): 0; Average Viability CFU/ml 60 min (Staphylococcus aureus [1]; [8]): 23200000 CFU/ml; Average Viability CFU/ml 60 min (Staphylococcus aureus [2]; [9]): 0 CFU/ml; Log Reduction 60 min (Staphylococcus aureus [2]; [9]): 7.4
CC(C)CC(N)CC(=O)O (racemic) [DL-Beta-homoleucine]																		log reduction at 5000 µM (Staphylococcus aureus [1]; [8]): 0; Average Viability CFU/ml 60 min (Staphylococcus aureus [1]; [8]): 20500000 CFU/ml; Average Viability CFU/ml 60 min (Staphylococcus aureus [2]; [9]): 0 CFU/ml; Log Reduction 60 min (Staphylococcus aureus [2]; [9]): 7.4
CSCC[C@H](N)C(=O)O [L-Methionine]	0.1	19800000 CFU/ml									6600000 CFU/ml	6.8	0.6					
N[C@H](Cc1ccccc1)C(=O)O [D-Phenylalanine]	0	24200000 CFU/ml	5.1	0.0	7.2	4.9	0.0	0.0	0.0	0.0				7950000 CFU/ml	0.5	8850000 CFU/ml	0.4	Average Viability CFU/ml 60 min (Staphylococcus aureus [2]; [6]): 0 CFU/ml; Log Reduction 60 min (Staphylococcus aureus [2]; [6]): 7.4; Average Viability CFU/ml 50 min (Staphylococcus aureus [2]; [7]): 9300000 CFU/ml; Log Reduction 50 min (Staphylococcus aureus [2]; [7]): 0.5; Average Viability CFU/ml 50 min (Staphylococcus aureus [2]; [13]): 7950000 CFU/ml; Log Reduction 50 min (Staphylococcus aureus [2]; [13]): 0.5; Average Viability CFU/ml 50 min (Staphylococcus aureus [2]; [14]): 8700000 CFU/ml; Log Reduction 50 min (Staphylococcus aureus [2]; [14]): 0.5
N[C@@H](CCC(=O)O)C(=O)O [L-Glutamic acid]		23700000 CFU/ml	7.1	7.0	7.3	6.7	6.9	2.8	7.3	6.0	236 CFU/ml	2.4	5.0	10850000 CFU/ml	0.4	11800000 CFU/ml	0.3	log reduction at 5000 µM (Staphylococcus aureus [1]): 0; Average Viability CFU/ml 50 min (Staphylococcus aureus [2]; [13]): 13700000 CFU/ml; Log Reduction 50 min (Staphylococcus aureus [2]; [13]): 0.3
NC(=O)CC[C@H](N)C(=O)O [L-Glutamine]	0	24100000 CFU/ml	7.3	7.1	6.8	7.0	7.2	0.0	7.0	5.2	286 CFU/ml	2.5	4.9	14350000 CFU/ml	0.2	12550000 CFU/ml	0.3	
C[C@@H](O)[C@H](N)C(=O)O [L-Threonine]	0	23300000 CFU/ml	7.3	7.1	7.3	6.7	7.1	5.5	7.3	7.3	630000 CFU/ml	5.8	1.6			1415000 CFU/ml	1.2	
N[C@@H](Cc1c[nH]cn1)C(=O)O [L-Histidine]	0	22700000 CFU/ml	7.3	7.3	7.3	7.3	6.8	4.7	7.3	7.3	48000 CFU/ml	4.7	2.7	7000000 CFU/ml	0.5	4750000 CFU/ml	0.7	Average Viability CFU/ml 50 min (Staphylococcus aureus [2]; [7]): 7000000 CFU/ml; Log Reduction 50 min (Staphylococcus aureus [2]; [7]): 0.6
O=CC(=O)O [Glyoxylic acid]	0.1	22200000 CFU/ml																Average Viability CFU/ml 60 min (Staphylococcus aureus [2]; [15]): 610000 CFU/ml; Log Reduction 60 min (Staphylococcus aureus [2]; [15]): 1.6
N[C@@H](CS)C(=O)O [L-Cysteine]	0	22400000 CFU/ml									17400000 CFU/ml	7.2	0.1					
